Laboratory results as given in US8101761B2, “(E)-N-{3-[1-(8-fluoro-11H-10-OXA-1-AZA-dibenzo [A,D] cyclohepten-5ylidene)-propyl]-phenyl}-methanesulfonamide as glucocorticoid receptor modulator for the treatment of rheumatoid arthritis” (Eli Lilly and Company, priority 2008, dated 2012).
Like-named read-outs stand apart in the source and are kept apart here.

Test system: carrageenan-induced paw edema in male Sprague-Dawley rats
Assay: Carrageenan-induced paw edema (CPE) model
Assay type: in vivo
Conditions: rat, oral gavage 2 h before carrageenan, paws taken 3 h after, mean of 5 determinations
Excerpt: Carrageenans are a group of polysaccharides which can induce an acute inflammatory response in animals. Cardinal signs of inflammation including edema, hyperalgesia and erythema are developed in the injection site immediately following injection. The CPE model is a recognized model of inflammation and can be used to evaluate the anti-inflammatory effects of glucocorticoid receptor ligands.
To evaluate the anti-inflammatory effects of Compound (I), the compound is formulated in a vehicle comprising 0.5% carboxymethyl cellulose and 0.25% Tween 80 then administered orally via gavage to male Sprague-Dawley rats (180-200 g). For comparison, prednisolone may be administered orally in the same vehicle. Two hours later, 1% carrageenan in 50 μl of 0.9% pyrogen free saline is injected into the subplantar regions of the right hind paw. Rats are euthanized by CO2 at 3 hours after the carrageenan injection. Paws are removed then weighed using a microbalance. Paws are then dissected by making several cuts on the paw surface and immediately immersing into liquid nitrogen until frozen. Frozen paws are then centrifuged to extract the exudates. Exudate levels of IL-1β, a cytokine generated during the inflammatory response is then measured by ELISA according to manufacturers instructions. Total paw protein is also measured using a protein assay kit and the absolute level of IL-1β is normalized to yield a concentration value of ng IL-1β/mg total protein.

C[C@]12C=CC(=O)C=C1CC[C@@H]1[C@@H]2[C@@H](O)C[C@@]2(C)[C@H]1CC[C@]2(O)C(=O)CO [prednisolone, reference compound]
ED50 (read-out: ED50, inhibition of carrageenan induced paw weight gain): ~6.6 mg/kg
ED50 (read-out: ED50, reduction of paw exudate levels of IL-1β): < 1 mg/kg
